Data reported in publication PMC6264190, “Interaction of α-Melanocortin and Its Pentapeptide Antisense LVKAT: Effects on Hepatoprotection in Male CBA Mice” (Molecules, 2011).
“Also recorded” adds a separate entry of the source.

Columns and labels:
[1] = tested on: acetaminophen-induced hepatotoxicity in male CBA mice; assay: Plasma aspartate aminotransferase (AST) activity 24 h after acetaminophen administration; assay type: in vivo; settings: mean ± SD; 24 h after acetaminophen 150 mg/kg i.g.; α-MSH 2.5 mg/kg, LVKAT 0.8 mg/kg or their equimolar mixture i.p. 1 hour before; group size 6-8; untreated controls 6091 ± 4275; α-MSH significantly lower, LVKAT and mixture p > 0.05; normal animals 109.3 ± 25.3
Procedure: (§1) Experimental animals were male CBA mice, 12-16 weeks old, weighing 20-25 g and bred at the Ruđer Bošković Institute. Experiments were performed according to the ILAR Guide for the Care and Use of Laboratory Animals, Council Directive 86/609/EEC, and Croatian Animal Protection Act (Official Gazette 135/06). The animals were kept in a room with dark-light cycle (12h/12h) and constant temperature (22 ± 1 °C). Hepatotoxicity was induced according to the slightly modified procedure of Guarner et al.. To induce hepatic drug-metabolizing enzymes mice were given 0.3 g/L phenobarbitone-sodium (Kemika, Zagreb, Croatia) for 7 days. […] (Krka, Novo Mesto, Slovenia) 150 mg/kg was given intragastrically (i.g.), via a gastric tube, in a volume of 0.5 mL. […] Control animals were treated with saline (0.9% NaCl). The size of experimental groups was 6-8. Mice that spontaneously died were excluded from histopathological or biochemical analysis. […] However, the difference was not statistically significant.
(§2) Sections of the liver were fixed in 10% phosphate buffered formalin, embedded in paraffin, sectioned at 4 µm, and stained with hematoxilin and eosin. […] Alanine aminotransferase (ALT) and aspartate aminotransferase (AST) activity was determined from plasma by standard laboratory techniques. […]

[2] = tested on: LVKAT; assay: Tryptophan fluorescence spectrofluorometric titration of sense peptides with antisense peptide LVKAT; assay type: binding
Procedure: Tryptophan fluorescence was used to detect binding of antisense pentapeptide LVKAT to the central binding region of α-MSH molecule. […] One was attributed to α-MSH and the other to its complex with antisense pentapeptide LVKAT. […] Consequently, the proposed model is given by Equation (1) and Equation (2), where Kd is the dissociation constant of the complex: […]
SENSE - LVKAT ⇄ SENSE + LVKAT(1)
(§3) Figure 2 A typical titration of 2.5 µM solution of α-MSH (sense) with LVKAT (antisense) at 25 °C, pH = 7.4, 10 mM phosphate buffer. The concentration of LVKAT was varied from 50 to 750 μM. Fluorescence units (f.u.) are given as a ratio of signals obtained from sample and reference PMTs. Inset: Fitting curve at 360 nm according to the Equation (1) and Equation (2).
as §3, with “Figure 3” for “Figure 2”, “of 25” for “of 2.5”, “of EHFRW” for “of α-MSH”, “to 500 µM.” for “to 750 μM.”
Fluorescence spectra were measured at 25 °C by OLIS RSM 1000F spectrofluorimeter (Olis, Bogart, GA, USA) equipped with thermostatted cell holder. […] Data obtained from the titrations were analyzed with the Specfit software package.

[3] = tested on: acetaminophen induced hepatotoxicity; settings: mouse model of acetaminophen induced hepatotoxicity; ref [15],[16]; cited from earlier work
Text: Alpha-melanotropin (α-MSH) is an ancient, evolutionally conserved, tridecapeptide derived by the proteolytic cleavage from the pro-opiomelanocortin (POMC) hormone. It is currently the most widely studied melanocortin peptide in the context of tissue inflammation and cytoprotection. Recently, Turčić et al. […] Turčić et al. […] Sections of the liver were fixed in 10% phosphate buffered formalin, embedded in paraffin, sectioned at 4 µm, and stained with hematoxilin and eosin. Sections were examined by using light microscope, and grading of the liver lesions was done on 0-5 point scale according to Silva et al. (0 = no lesions, 1 = minimal, 2 = mild, 3 = moderate, 4 = marked and 5 = severe lesions). Alanine aminotransferase (ALT) and aspartate aminotransferase (AST) activity was determined from plasma by standard laboratory techniques. Plasma was sep ...

[4] = tested on: acetaminophen-induced hepatotoxicity in male CBA mice; assay: Plasma alanine aminotransferase (ALT) activity 24 h after acetaminophen administration; assay type: in vivo; settings: mean ± SD; 24 h after acetaminophen 150 mg/kg i.g.; α-MSH 2.5 mg/kg, LVKAT 0.8 mg/kg or their equimolar mixture i.p. 1 hour before; group size 6-8; untreated controls 10087 ± 9595; α-MSH significantly lower, LVKAT and mixture p > 0.05; normal animals 37.7 ± 7.7
Procedure: as §1, §2

[5] = tested on: acetaminophen (APAP)-induced liver lesions in male CBA mice; assay: Histopathological grading of acetaminophen (APAP)-induced liver lesions; assay type: in vivo; settings: mean ± SD; acetaminophen 150 mg/kg i.g.; α-MSH 2.5 mg/kg, LVKAT 0.8 mg/kg or their equimolar mixture i.p. 1 hour before; scored at 24 hours; 0 = no lesions, 5 = severe; group size 6-8; untreated controls 4.8 ± 0.46; α-MSH p < 0.05, LVKAT and mixture p > 0.05 vs controls
Procedure: as §1, §2

[6] = tested on: male CBA mice; assay: Spontaneous deaths in the acetaminophen hepatotoxicity model; assay type: in vivo; settings: starting number eight per group; acetaminophen 150 mg/kg i.g.; α-MSH 2.5 mg/kg, LVKAT 0.8 mg/kg or equimolar mixture i.p.; none died in control; difference not statistically significant
Procedure: as §1

[7] = tested on: hepatoprotective effects of α-MSH on the APAP induced hepatic lesions; assay: Modulation of α-MSH hepatoprotection by antisense peptide in vivo (overall); design: species or system male CBA mice
Procedure: as §1, §2

[8] = tested on: antibody to L-α-MSH; settings: ref [15],[16]; cited from earlier work

binding to LVKAT in fluorescence titration (in words) ([2]; same experimental conditions as for α-MSH (25 °C, pH = 7.4, 10 mM phosphate buffer))	Substance	blood (plasma) aspartate aminotransferase (AST) [1] [U/L]	stoichiometry of complex with LVKAT ([2]; SVD analysis of fluorescence titration spectra, Specfit, no higher order complexes) [complex formation]	hepatoprotective effect (in words) [3]	blood (plasma) alanine aminotransferase (ALT) [4] [U/L]	liver lesion score (scale 0-5) [5]	animals that died spontaneously [6]	effect of LVKAT alone (hepatoprotection, in words) ([7]; LVKAT 0.8 mg/kg i.p. 1 hour before acetaminophen 150 mg/kg i.g., p > 0.05 vs untreated controls)	effect on hepatoprotection by α-MSH (in words) ([7]; LVKAT given with α-MSH (equimolar) i.p. 1 hour before acetaminophen 150 mg/kg i.g., histopathology, ALT and AST)	binding to antibody to L-α-MSH [8]
	Ac-SYSMEHFRWGKPV-NH2 [α-MSH, tridecapeptide derived by the proteolytic cleavage from the pro-opiomelanocortin (POMC) hormone]	539.5 ± 459.6	1 to 1	strong and dose dependent hepatoprotective effects; also recorded: potent hepatoprotective effects	585.8 ± 1424	2 ± 0.75	none of the animals died			
	LVKAT [pentapeptide antisense to central region of α-MSH that serves as the pharmacophore for melanocortin receptors]					5 ± 0		not hepatoprotective per se	abolishes hepatoprotective effects of α-MSH	
very weak (if any) binding	Ac-SYSMEHFRWGKPV-NH2 [D-α-MSH, D-enantiomer of α-MSH]									does not bind antibody to L-α-MSH
